The source made the active and inactive calls. The calls are words filed in the database; no cut-off is given here.

These results are taken from ChEMBL document CHEMBL2146405, “Isomalyngamide A, A-1 and their analogs suppress cancer cell migration in vitro” (Eur J Med Chem, 2011).

The target of data set [1] is Integrin beta-1 (Homo sapiens) (UniProt P05556). Description: Inhibition of beta1-integrin in human MDA-MB-231 cells assessed as FAK protein level after 2 hrs by Western blot analysis. The class given is cell-based.
The target is the same in data set [2]. Description: Inhibition of beta1-integrin in human MDA-MB-231 cells assessed as FAK phosphorylation at Tyr576/Tyr577 after 2 hrs by Western blot analysis. The class given is cell-based.
Data set [3] has the same target. Nature of the data set: Inhibition of beta1-integrin in human MDA-MB-231 cells assessed as Akt protein level after 2 hrs by Western blot analysis. It is filed as cell-based. A general note: A western blot detects proteins with antibodies after separation by electrophoresis.
For data set [4] the target is unchanged. Nature of the data set: Inhibition of beta1-integrin in human MDA-MB-231 cells assessed as Akt phosphorylation at Ser473 after 2 hrs by Western blot analysis. The class given is cell-based.
For data set [5] the target is unchanged. Nature of the data set: Inhibition of beta1-integrin in human MDA-MB-231 cells after 2 hrs by Western blot analysis. The class given is cell-based.
Data set [6] in a line: Solubility of compound at 10 uM. It is filed as physicochemical.
The test system of data set [7] is MDA-MB-231. Description: Antiproliferative activity against human MDA-MB-231 cells at 20 uM after 48 hrs by MTT assay. It is filed as functional. The following applies: MDA-MB-231, 48 h. In general terms: Tetrazolium assays rely on reduction of a dye to a coloured formazan, in cell work by metabolically active cells.
Data set [8] concerns MCF7. Nature of the data set: Antiproliferative activity against human MCF7 cells at 20 uM after 48 hrs by MTT assay. It is filed as functional. The following applies: MCF7, 48 h.
Data set [9] is filed under the species Rattus norvegicus. Description: Inhibition of rat liver alpha 2,3-sialyltransferase at 100 uM.
Data set [10] has as its system MDA-MB-231. Description: Antiproliferative activity against human MDA-MB-231 cells assessed as reduction in cell viability at 50 uM after 48 hrs by MTT assay. It is filed as functional, cell-based.
In data set [11] the test system is MDA-MB-231. Nature of the data set: cells. Particulars: Homo sapiens, MDA-MB-231, 16 h.
Description: Antimetastatic activity in human MDA-MB-231 cells assessed as inhibition of serum-induced cellular migration after 16 hrs by Boyden chamber assay
A short description of data set [12]: Inhibition of rat liver alpha 2,3-sialyltransferase.
In data set [13] the test system is MDA-MB-231. Nature of the data set: Antimetastatic activity in human MDA-MB-231 cells assessed as inhibition of serum-induced cellular migration at 150 nM after 24 hrs by wound healing assay. The class given is functional, cell-based.
Data set [14] relates to MDA-MB-231. Nature of the data set: Antiproliferative activity against human MDA-MB-231 cells after 48 hrs by MTT assay. It is filed as functional, cell-based. The following applies: MDA-MB-231, 48 h.
Data set [15] concerns MCF7. Nature of the data set: Antiproliferative activity against human MCF7 cells after 48 hrs by MTT assay. Particulars: MCF7, 48 h. It is filed as functional, cell-based.
Data set [16] has as its system MDA-MB-231. Nature of the data set: Antimetastatic activity in human MDA-MB-231 cells assessed as inhibition of cell migration-associated wound closure at 150 nM after 24 hrs of scratching by wound-healing assay. The class given is functional, cell-based.

Integrin beta-1 (Homo sapiens), sequence (P05556 whole entry): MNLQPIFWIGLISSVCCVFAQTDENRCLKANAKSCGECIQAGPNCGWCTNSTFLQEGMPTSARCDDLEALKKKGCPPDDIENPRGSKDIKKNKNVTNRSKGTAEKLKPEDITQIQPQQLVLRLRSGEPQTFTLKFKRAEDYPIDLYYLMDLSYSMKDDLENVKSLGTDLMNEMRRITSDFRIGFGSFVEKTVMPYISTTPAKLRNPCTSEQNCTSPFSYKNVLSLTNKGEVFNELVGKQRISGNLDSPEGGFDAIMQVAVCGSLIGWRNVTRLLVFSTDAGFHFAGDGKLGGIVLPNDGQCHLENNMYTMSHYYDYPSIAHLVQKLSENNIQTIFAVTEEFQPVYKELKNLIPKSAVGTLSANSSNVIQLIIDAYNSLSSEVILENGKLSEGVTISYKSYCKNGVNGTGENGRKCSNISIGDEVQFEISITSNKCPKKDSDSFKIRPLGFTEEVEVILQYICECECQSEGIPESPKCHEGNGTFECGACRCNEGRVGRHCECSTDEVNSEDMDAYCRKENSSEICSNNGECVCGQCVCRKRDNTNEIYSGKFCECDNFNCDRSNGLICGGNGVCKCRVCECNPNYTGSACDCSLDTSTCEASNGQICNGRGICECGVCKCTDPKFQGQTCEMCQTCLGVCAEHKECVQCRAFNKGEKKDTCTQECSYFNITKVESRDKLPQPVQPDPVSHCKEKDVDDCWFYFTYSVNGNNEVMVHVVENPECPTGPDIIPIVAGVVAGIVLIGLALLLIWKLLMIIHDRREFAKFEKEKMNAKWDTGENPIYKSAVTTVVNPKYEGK

As usually defined, the inhibition is the relative decrease from the control value, in per cent. For the compound `CCCCCCCCCCCCCC(=O)NCCNC(=O)C(C)(C)C(=O)N1CC(=O)CC1=O`, the inhibition entry in data set [1], in data set [2], in [3] and in data set [5] was “Dose-dependent effect” each time. In addition, the inhibition result in [4] was “Active”.

Take `CCCCCCCCCCCCCC(=O)N1CC(OC)=CC1=O`: in data set [6], the solubility result is on record as “Insoluble”.

Consider `COC1=CC(=O)NC1`, for which the inhibition at 20 µM in data set [7] stood at 3%; in data set [8], 2%. For the same compound, the inhibition entry in [9] is “inactive”.

As a reminder, the IC50 is the point on the concentration scale where inhibition reaches its midpoint. Turning to `CCCCCCCCCCCCCC(=O)NCCNC(=O)C(C)(C)C(=O)NCC(=O)O`, the result in [10] was inactive. The half-inhibitory concentration (IC50) came out at 22.7 µM in [11] and 37 µM in data set [12]. In addition, the inhibition at 20 µM in data set [7] worked out at 0%; in [8] it was 7%.

On to `CCCCCCC[C@@H](C/C=C/CCC(=O)N(C)C/C(=C\Cl)C/C(=C\C(=O)N1CC(OC)=CC1=O)OC)OC` [ISOMALYNGAMIDE A], for which the outcome in data set [13] and in [16] was Active. The half-maximal inhibitory concentration (IC50) in data set [11] was found to be 0.06 µM; in [14], 2.8 µM; in [15], 4.6 µM; in data set [12] it was 77.2 µM.
